# Non-standard residues stand in square brackets, D forms with d. Residues, ends and D or L forms follow the SMILES beside them. *: point of attachment. Phe(F5) = N[C@@H](Cc1c(F)c(F)c(F)c(F)c1F)C(=O)O; Palmitoyl = CCCCCCCCCCCCCCCC(=O)*
# How the values were obtained:
# [1] = Rheological experiment on PA gels formed with CaCl2; type: physicochemical; settings: 5 mM PA gelled with 0.2 M CaCl2, 100 Hz, 0.5% strain, 25° C.
# Experimental: The mechanical property of the PAs was evaluated by performing rheological studies. 25 μL of 0.2 M CaCl2 were added to gel 250 μL of 5 mM PA MilliQ-water solution aged for 2 days on the rheometer. Tests were performed at 100 Hz with 0.5% strain at 25° C., using a 25 mm parallel plate with a 0.5 mm gap distance. The storage moduli used were taken from the time test at 5000 seconds. Frequency sweeps were done at a constant strain of 0.5%, and strain sweeps were done at a frequency of 100 Hz. The plateau modulus was determined as 10, 7.5, 7.5, and 2.8 kPa for parent PA, PA Z1, Z2, and Z3, respectively.
# [2] = system: Staphylococcus aureus; type: cell-based
# Experimental: S. aureus (ATCC 25923) (American Type Culture Collection, Manassas, Va.) was cultured in LB broth overnight at 37° C. The suspension of the overnight culture was inoculated in fresh LB broth and cultured under aerobic conditions until reaching an OD600 value of approximately 0.5 (exponential growth phase). The bacterial cells were harvested by centrifugation at 1,500×g for 10 min, washed thrice with PBS, and re-suspended in the appropriate solution for experiment. The bacterial cell suspensions were diluted to an OD600 value of 0.1, which corresponds to 1×10^7 CFU/mL for S. aureus. Before experiment, the bacterial cells were then diluted 1:10 with PBS unless otherwise noted.
# The MIC values of peptide amphiphiles were determined in PBS. The MIC determination was made by the Mueller-Hinton (MH) agar plate method. Two-fold serial dilutions of test compound (peptide amphiphiles) solutions in PBS were firstly made in a 96-well microtiter plate. The test compound concentration ranged from 500 μM to 1 μM with 50 μL volume. Then, 50 μL of S. aureus (1×10^6 CFU/mL) suspended in PBS was added to each well for a final cell density of 5×10^5 CFU/mL. The samples were incubated for 3 hrs at 37° C., and then streaked onto MH agar plates. The plates were incubated overnight at 37° C. and the MIC value was recorded based on the lowest test compound concentration that inhibited colony growth.
# The minimum inhibitory concentration (MIC) of the PAs against Staphylococcus aureus was determined to estimate their bioactivity as antimicrobial agents. The bacterial cell density is 5×10^5 CFU/mL, and the concentration of the PA solutions is ranging from 0.3 μM to 500 μM. […], the MIC value for PAs Z1 and Z2 was determined to be 4 μM, while inhibition of the growth of the bacterium after treatment by parent PA and PA Z3 at 500 μM was not observed.
SMILES,plateau modulus [1],minimum inhibitory concentration (MIC) [2]
CCCCCCCCCCCCCCCC(=O)N[C@H](C(=O)N[C@@H](Cc1c(F)c(F)c(F)c(F)c1F)C(=O)N[C@H](C(=O)N[C@@H](C)C(=O)N[C@@H](C)C(=O)N[C@@H](C)C(=O)N[C@@H](CCC(=O)O)C(=O)N[C@@H](CCC(=O)O)C(=O)N[C@@H](CCC(=O)O)C(N)=O)C(C)C)C(C)C [PA Z2] (Palmitoyl-V[Phe(F5)]VAAAEEE-NH2; C-terminus assumed),7.5 kPa,4 µM
CCCCCCCCCCCCCCCC(=O)N[C@H](C(=O)N[C@H](C(=O)N[C@@H](Cc1c(F)c(F)c(F)c(F)c1F)C(=O)N[C@@H](C)C(=O)N[C@@H](C)C(=O)N[C@@H](C)C(=O)N[C@@H](CCC(=O)O)C(=O)N[C@@H](CCC(=O)O)C(=O)N[C@@H](CCC(=O)O)C(N)=O)C(C)C)C(C)C [PA Z3] (Palmitoyl-VV[Phe(F5)]AAAEEE-NH2; C-terminus assumed),2.8 kPa,> 500 µM
CCCCCCCCCCCCCCCC(=O)N[C@@H](Cc1c(F)c(F)c(F)c(F)c1F)C(=O)N[C@H](C(=O)N[C@H](C(=O)N[C@@H](C)C(=O)N[C@@H](C)C(=O)N[C@@H](C)C(=O)N[C@@H](CCC(=O)O)C(=O)N[C@@H](CCC(=O)O)C(=O)N[C@@H](CCC(=O)O)C(N)=O)C(C)C)C(C)C [PA Z1] (Palmitoyl-[Phe(F5)]VVAAAEEE-NH2; C-terminus assumed),7.5 kPa,4 µM
"CCCCCCCCCCCCCCCC(=O)N[C@H](C(=O)N[C@H](C(=O)N[C@H](C(=O)N[C@@H](C)C(=O)N[C@@H](C)C(=O)N[C@@H](C)C(=O)N[C@@H](CCC(=O)O)C(=O)N[C@@H](CCC(=O)O)C(=O)N[C@@H](CCC(=O)O)C(N)=O)C(C)C)C(C)C)C(C)C [parent PA, reference compound] (Palmitoyl-VVVAAAEEE-NH2; C-terminus assumed)",10 kPa,> 500 µM
